Test results from the supplement of paper PMC10733146.

Assays:
Assay in all cases: viability relative to DMSO control (fraction); higher = less drug effect (more viable cells)
Details in all cases: 48 h
[1] = test system: primary ALL patient cells (S088)
Outline: (§1)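 Cells were incubated for 48 h at 37 °C and 5% CO2 in RPMI-1640 with penicillin/streptomycin, L-glutamine and human serum, at 4 × 10^4 cells per well in 384-well plates with compounds pre-plated at five concentrations, one well each. These were primary mononuclear tumour cells, fresh or cryopreserved, Ficoll-isolated from blood or bone marrow or obtained from processed lymph node. Viability values are CellTiter-Glo luminescence relative to the median of 16 inner DMSO wells.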

[2] = test system: primary AML patient cells (S007)
Outline: as §1

[3] = test system: primary AML patient cells (S009)
Outline: as §1

[4] = test system: primary AML patient cells (S011)
Outline: as §1

[5] = test system: primary AML patient cells (S021)
Outline: as §1

[6] = test system: primary AML patient cells (S027)
Outline: as §1

[7] = test system: primary AML patient cells (S060)
Outline: as §1

[8] = test system: primary AML patient cells (S081)
Outline: as §1

[9] = test system: primary B-PLL patient cells (S016)
Outline: as §1

[10] = test system: primary DLBCL patient cells (S082)
Outline: as §1

[11] = test system: primary FL patient cells (S087)
Outline: as §1

[12] = test system: primary MCL patient cells (S041)
Outline: as §1

[13] = test system: primary MCL patient cells (S063)
Outline: as §1

[14] = test system: primary T-PLL patient cells (S008)
Outline: as §1

[15] = test system: primary AML patient cells (S006)
Outline: as §1

[16] = test system: primary DLBCL patient cells (S049)
Outline: as §1

[17] = test system: primary DLBCL patient cells (S076)
Outline: as §1

[18] = test system: primary T-NHL patient cells (S058)
Outline: as §1

CN1CC[C@H](c2c(O)cc(O)c3c(=O)cc(-c4ccccc4Cl)oc23)[C@H](O)C1 [Flavopiridol]
viability ([1]; 0.0032 µM): 0.955 | viability ([1]; 0.016 µM): 0.916 | viability ([1]; 0.08 µM): 1.08 | viability ([1]; 0.4 µM): 0.0921 | viability ([1]; 2 µM): 0.0295 | viability ([2]; 0.0032 µM): 0.945 | viability ([2]; 0.016 µM): 0.68 | viability ([2]; 0.08 µM): 0.624 | viability ([2]; 0.4 µM): 0.127 | viability ([2]; 2 µM): 0.0782 | viability ([3]; 0.0032 µM): 0.95 | viability ([3]; 0.016 µM): 0.898 | viability ([3]; 0.08 µM): 0.619 | viability ([3]; 0.4 µM): 0.199 | viability ([3]; 2 µM): 0.0899 | viability ([4]; 0.0032 µM): 0.859 | viability ([4]; 0.016 µM): 0.754 | viability ([4]; 0.08 µM): 0.715 | viability ([4]; 0.4 µM): 0.0633 | viability ([4]; 2 µM): 0.0225 | viability ([5]; 0.0032 µM): 0.974 | viability ([5]; 0.016 µM): 0.852 | viability ([5]; 0.08 µM): 0.676 | viability ([5]; 0.4 µM): 0.292 | viability ([5]; 2 µM): 0.124 | viability ([6]; 0.0032 µM): 1.04 | viability ([6]; 0.016 µM): 0.947 | viability ([6]; 0.08 µM): 0.842 | viability ([6]; 0.4 µM): 0.0906 | viability ([6]; 2 µM): 0.0365 | viability ([7]; 0.0032 µM): 0.949 | viability ([7]; 0.016 µM): 0.937 | viability ([7]; 0.08 µM): 0.848 | viability ([7]; 0.4 µM): 0.127 | viability ([7]; 2 µM): 0.0228 | viability ([8]; 0.0032 µM): 1.01 | viability ([8]; 0.016 µM): 0.873 | viability ([8]; 0.08 µM): 0.766 | viability ([8]; 0.4 µM): 0.0954 | viability ([8]; 2 µM): 0.0215 | viability ([9]; 0.0032 µM): 0.932 | viability ([9]; 0.016 µM): 0.862 | viability ([9]; 0.08 µM): 0.959 | viability ([9]; 0.4 µM): 0.217 | viability ([9]; 2 µM): 0.0227 | viability ([10]; 0.0032 µM): 1.03 | viability ([10]; 0.016 µM): 0.977 | viability ([10]; 0.08 µM): 1.11 | viability ([10]; 0.4 µM): 0.103 | viability ([10]; 2 µM): 0.0254 | viability ([11]; 0.0032 µM): 0.967 | viability ([11]; 0.016 µM): 0.91 | viability ([11]; 0.08 µM): 1 | viability ([11]; 0.4 µM): 0.644 | viability ([11]; 2 µM): 0.638 | viability ([12]; 0.0032 µM): 1.01 | viability ([12]; 0.016 µM): 0.914 | viability ([12]; 0.08 µM): 0.892 | viability ([12]; 0.4 µM): 0.0723 | viability ([12]; 2 µM): 0.0378 | viability ([13]; 0.0032 µM): 0.987 | viability ([13]; 0.016 µM): 0.935 | viability ([13]; 0.08 µM): 0.887 | viability ([13]; 0.4 µM): 0.269 | viability ([13]; 2 µM): 0.0178 | viability ([14]; 0.0032 µM): 0.953 | viability ([14]; 0.016 µM): 1.03 | viability ([14]; 0.08 µM): 0.916 | viability ([14]; 0.4 µM): 0.804 | viability ([14]; 2 µM): 0.0718

Cc1nc(Nc2ncc(C(=O)Nc3c(C)cccc3Cl)s2)cc(N2CCN(CCO)CC2)n1 [Dasatinib]
viability ([1]; 0.0016 µM): 0.899 | viability ([1]; 0.008 µM): 0.709 | viability ([1]; 0.04 µM): 0.62 | viability ([1]; 0.2 µM): 0.545 | viability ([1]; 1 µM): 0.631 | viability ([15]; 0.0016 µM): 0.961 | viability ([15]; 0.008 µM): 0.912 | viability ([15]; 0.04 µM): 0.88 | viability ([15]; 0.2 µM): 0.808 | viability ([2]; 0.0016 µM): 0.89 | viability ([2]; 0.008 µM): 0.964 | viability ([2]; 0.04 µM): 0.917 | viability ([2]; 0.2 µM): 0.837 | viability ([2]; 1 µM): 0.755 | viability ([3]; 0.0016 µM): 0.987 | viability ([3]; 0.008 µM): 0.965 | viability ([3]; 0.04 µM): 0.993 | viability ([3]; 0.2 µM): 0.972 | viability ([3]; 1 µM): 1 | viability ([4]; 0.0016 µM): 1.06 | viability ([4]; 0.008 µM): 0.884 | viability ([4]; 0.04 µM): 0.909 | viability ([4]; 0.2 µM): 0.882 | viability ([4]; 1 µM): 0.936 | viability ([5]; 0.0016 µM): 0.964 | viability ([5]; 0.008 µM): 0.799 | viability ([5]; 0.04 µM): 0.73 | viability ([5]; 0.2 µM): 0.615 | viability ([5]; 1 µM): 0.638 | viability ([6]; 0.0016 µM): 1.06 | viability ([7]; 0.0016 µM): 1.02 | viability ([7]; 0.008 µM): 1.03 | viability ([7]; 0.04 µM): 0.901 | viability ([7]; 0.2 µM): 0.891 | viability ([7]; 1 µM): 0.638 | viability ([8]; 0.0016 µM): 1.14 | viability ([8]; 0.008 µM): 1.01 | viability ([8]; 0.04 µM): 0.693 | viability ([8]; 0.2 µM): 0.54 | viability ([8]; 1 µM): 0.764 | viability ([9]; 0.0016 µM): 0.693 | viability ([9]; 0.008 µM): 0.45 | viability ([9]; 0.04 µM): 0.397 | viability ([9]; 0.2 µM): 0.368 | viability ([9]; 1 µM): 0.445 | viability ([16]; 0.0016 µM): 0.952 | viability ([16]; 0.008 µM): 0.83 | viability ([16]; 0.04 µM): 0.814 | viability ([16]; 0.2 µM): 0.497 | viability ([16]; 1 µM): 0.33 | viability ([17]; 0.0016 µM): 0.835 | viability ([17]; 0.008 µM): 0.672 | viability ([17]; 0.04 µM): 0.628 | viability ([17]; 0.2 µM): 0.532 | viability ([17]; 1 µM): 0.535 | viability ([10]; 0.0016 µM): 0.966 | viability ([10]; 0.008 µM): 0.847 | viability ([10]; 0.04 µM): 0.643 | viability ([10]; 0.2 µM): 0.298 | viability ([10]; 1 µM): 0.0983 | viability ([11]; 0.0016 µM): 0.914 | viability ([11]; 0.008 µM): 0.782 | viability ([11]; 0.04 µM): 0.747 | viability ([11]; 0.2 µM): 0.753 | viability ([11]; 1 µM): 0.742 | viability ([12]; 0.0016 µM): 0.903 | viability ([12]; 0.008 µM): 0.79 | viability ([12]; 0.04 µM): 0.723 | viability ([12]; 0.2 µM): 0.67 | viability ([12]; 1 µM): 0.6 | viability ([13]; 0.0016 µM): 1 | viability ([13]; 0.008 µM): 0.653 | viability ([13]; 0.04 µM): 0.245 | viability ([13]; 0.2 µM): 0.151 | viability ([13]; 1 µM): 0.118 | viability ([18]; 0.0016 µM): 0.962 | viability ([18]; 0.008 µM): 0.836 | viability ([18]; 0.04 µM): 0.861 | viability ([18]; 0.2 µM): 0.834 | viability ([18]; 1 µM): 0.855 | viability ([14]; 0.0016 µM): 1 | viability ([14]; 0.008 µM): 0.974 | viability ([14]; 0.04 µM): 0.968 | viability ([14]; 0.2 µM): 0.973 | viability ([14]; 1 µM): 0.996
